System: rats subjected to sTBI
Test: sTBI rats, LMW-DS 1, 5, 15 mg/kg s.c. 30 min post-TBI: HPLC of brain free amino acids (Example 4)
Format: in vivo, rat
[1] = 15 mg/kg repeated, 7 d post-sTBI

sodium salt of dextran sulfate [LMW-DS]
ALA (1 mg/kg, 2 d post-sTBI): 0.76 ± 0.08 nmol/g w.w. | ARG (1 mg/kg, 2 d post-sTBI): 0.13 ± 0.03 nmol/g w.w. | ASN (1 mg/kg, 2 d post-sTBI): 0.13 ± 0.02 nmol/g w.w. | ASP (1 mg/kg, 2 d post-sTBI): 4.17 ± 0.99 nmol/g w.w. | CITR (1 mg/kg, 2 d post-sTBI): 0.01 ± 0.01 nmol/g w.w. | GABA (1 mg/kg, 2 d post-sTBI): 1.87 ± 0.17 µmol/g w.w. | GLN (1 mg/kg, 2 d post-sTBI): 4.37 ± 0.59 nmol/g w.w. | GLU (1 mg/kg, 2 d post-sTBI): 12.52 ± 0.91 nmol/g w.w. | GLY (1 mg/kg, 2 d post-sTBI): 1.35 ± 0.26 nmol/g w.w. | HYS (1 mg/kg, 2 d post-sTBI): 0.08 ± 0.01 nmol/g w.w. | ILE (1 mg/kg, 2 d post-sTBI): 0.10 ± 0.02 nmol/g w.w. | L-Cystat (1 mg/kg, 2 d post-sTBI): 0.25 ± 0.05 nmol/g w.w. | LEU (1 mg/kg, 2 d post-sTBI): 0.09 ± 0.02 nmol/g w.w. | LYS (1 mg/kg, 2 d post-sTBI): 0.29 ± 0.11 nmol/g w.w. | MET (1 mg/kg, 2 d post-sTBI): 0.04 ± 0.01 nmol/g w.w. | ORN (1 mg/kg, 2 d post-sTBI): 0.02 ± 0.01 nmol/g w.w. | PHE (1 mg/kg, 2 d post-sTBI): 0.07 ± 0.03 nmol/g w.w. | SAH (1 mg/kg, 2 d post-sTBI): 0.07 ± 0.02 nmol/g w.w. | SER (1 mg/kg, 2 d post-sTBI): 0.91 ± 0.07 nmol/g w.w. | TAU (1 mg/kg, 2 d post-sTBI): 4.98 ± 0.47 nmol/g w.w. | THR (1 mg/kg, 2 d post-sTBI): 0.70 ± 0.15 nmol/g w.w. | TRP (1 mg/kg, 2 d post-sTBI): 0.02 ± 0.01 nmol/g w.w. | TYR (1 mg/kg, 2 d post-sTBI): 0.18 ± 0.03 nmol/g w.w. | VAL (1 mg/kg, 2 d post-sTBI): 0.07 ± 0.03 nmol/g w.w. | ALA (1 mg/kg, 7 d post-sTBI): 0.57 ± 0.06 nmol/g w.w. | ARG (1 mg/kg, 7 d post-sTBI): 0.13 ± 0.02 nmol/g w.w. | ASN (1 mg/kg, 7 d post-sTBI): 0.10 ± 0.02 nmol/g w.w. | ASP (1 mg/kg, 7 d post-sTBI): 4.17 ± 0.67 nmol/g w.w. | CITR (1 mg/kg, 7 d post-sTBI): 0.03 ± 0.01 nmol/g w.w. | GABA (1 mg/kg, 7 d post-sTBI): 1.73 ± 0.18 µmol/g w.w. | GLN (1 mg/kg, 7 d post-sTBI): 4.10 ± 0.42 nmol/g w.w. | GLU (1 mg/kg, 7 d post-sTBI): 12.14 ± 1.02 nmol/g w.w. | GLY (1 mg/kg, 7 d post-sTBI): 0.98 ± 0.20 nmol/g w.w. | L-Cystat (1 mg/kg, 7 d post-sTBI): 0.24 ± 0.04 nmol/g w.w. | MET (1 mg/kg, 7 d post-sTBI): 0.03 ± 0.01 nmol/g w.w. | ORN (1 mg/kg, 7 d post-sTBI): 0.01 ± 0.01 nmol/g w.w. | SAH (1 mg/kg, 7 d post-sTBI): 0.04 ± 0.01 nmol/g w.w. | SER (1 mg/kg, 7 d post-sTBI): 0.92 ± 0.16 nmol/g w.w. | THR (1 mg/kg, 7 d post-sTBI): 0.71 ± 0.12 nmol/g w.w. | ALA (5 mg/kg, 2 d post-sTBI): 0.79 ± 0.08 nmol/g w.w. | ARG (5 mg/kg, 2 d post-sTBI): 0.13 ± 0.03 nmol/g w.w. | ASN (5 mg/kg, 2 d post-sTBI): 0.17 ± 0.03 nmol/g w.w. | ASP (5 mg/kg, 2 d post-sTBI): 4.15 ± 0.95 nmol/g w.w. | CITR (5 mg/kg, 2 d post-sTBI): 0.02 ± 0.01 nmol/g w.w. | GABA (5 mg/kg, 2 d post-sTBI): 1.99 ± 0.18 µmol/g w.w. | GLN (5 mg/kg, 2 d post-sTBI): 4.55 ± 0.44 nmol/g w.w. | GLU (5 mg/kg, 2 d post-sTBI): 11.93 ± 0.55 nmol/g w.w. | GLY (5 mg/kg, 2 d post-sTBI): 1.43 ± 0.28 nmol/g w.w. | HYS (5 mg/kg, 2 d post-sTBI): 0.11 ± 0.02 nmol/g w.w. | ILE (5 mg/kg, 2 d post-sTBI): 0.10 ± 0.02 nmol/g w.w. | L-Cystat (5 mg/kg, 2 d post-sTBI): 0.31 ± 0.06 nmol/g w.w. | LEU (5 mg/kg, 2 d post-sTBI): 0.10 ± 0.02 nmol/g w.w. | LYS (5 mg/kg, 2 d post-sTBI): 0.37 ± 0.14 nmol/g w.w. | MET (5 mg/kg, 2 d post-sTBI): 0.05 ± 0.01 nmol/g w.w. | ORN (5 mg/kg, 2 d post-sTBI): 0.01 ± 0.01 nmol/g w.w. | PHE (5 mg/kg, 2 d post-sTBI): 0.07 ± 0.03 nmol/g w.w. | SAH (5 mg/kg, 2 d post-sTBI): 0.07 ± 0.02 nmol/g w.w. | SER (5 mg/kg, 2 d post-sTBI): 0.91 ± 0.07 nmol/g w.w. | TAU (5 mg/kg, 2 d post-sTBI): 5.15 ± 0.49 nmol/g w.w. | THR (5 mg/kg, 2 d post-sTBI): 0.77 ± 0.17 nmol/g w.w. | TRP (5 mg/kg, 2 d post-sTBI): 0.03 ± 0.01 nmol/g w.w. | TYR (5 mg/kg, 2 d post-sTBI): 0.20 ± 0.03 nmol/g w.w. | VAL (5 mg/kg, 2 d post-sTBI): 0.08 ± 0.03 nmol/g w.w. | ALA (5 mg/kg, 7 d post-sTBI): 0.44 ± 0.05 nmol/g w.w. | ARG (5 mg/kg, 7 d post-sTBI): 0.15 ± 0.02 nmol/g w.w. | ASN (5 mg/kg, 7 d post-sTBI): 0.10 ± 0.02 nmol/g w.w. | ASP (5 mg/kg, 7 d post-sTBI): 3.63 ± 0.59 nmol/g w.w. | CITR (5 mg/kg, 7 d post-sTBI): 0.03 ± 0.01 nmol/g w.w. | GABA (5 mg/kg, 7 d post-sTBI): 1.63 ± 0.17 µmol/g w.w. | GLN (5 mg/kg, 7 d post-sTBI): 3.86 ± 0.40 nmol/g w.w. | GLU (5 mg/kg, 7 d post-sTBI): 11.82 ± 0.99 nmol/g w.w. | GLY (5 mg/kg, 7 d post-sTBI): 0.88 ± 0.15 nmol/g w.w. | L-Cystat (5 mg/kg, 7 d post-sTBI): 0.26 ± 0.04 nmol/g w.w. | MET (5 mg/kg, 7 d post-sTBI): 0.04 ± 0.01 nmol/g w.w. | ORN (5 mg/kg, 7 d post-sTBI): 0.01 ± 0.01 nmol/g w.w. | SAH (5 mg/kg, 7 d post-sTBI): 0.04 ± 0.01 nmol/g w.w. | SER (5 mg/kg, 7 d post-sTBI): 0.83 ± 0.14 nmol/g w.w. | THR (5 mg/kg, 7 d post-sTBI): 0.71 ± 0.15 nmol/g w.w. | ALA [1]: 0.47 ± 0.05 nmol/g w.w. | ARG [1]: 0.19 ± 0.02 nmol/g w.w. | ASN [1]: 0.10 ± 0.02 nmol/g w.w. | ASP [1]: 2.42 ± 0.39 nmol/g w.w. | CITR [1]: 0.03 ± 0.01 nmol/g w.w. | GABA [1]: 1.38 ± 0.14 µmol/g w.w.

— patent US20230346827A1 (priority 2020, published 2023)
